Five molecules from patent publication US9096852B2, “Inhibitors of micro-RNAs for use for preventing and/or attenuating skin ageing and/or for hydrating skin” (CHANEL PARFUMS BEAUTE, priority 2010, dated 2015) can be followed below.

Entries after “also recorded” stand apart in the source; their conditions may differ. Bounds are passed on as bounds.

The subject of series [1] is Mir 130a. The series is described as follows: Screening of active compounds: miR-130a expression by real time PCR in keratinocytes. The series is classed as cell-based, human. The following applies: 48 hours. The protocol: (§1) Neonatal Human Primary Epidermal Keratinocytes (Hekn, Cascade, Invitrogen, Carlsbad, Calif., USA) were cultured in EpiLife medium added with HKGS growth supplements (Cascade). Cells were constantly kept subconfluent in order to avoid triggering of a differentiation process. Cells were passaged usually once a week, at each passage the harvested cells number and seeded cell number were recorded in order to calculate the population doublings occurring between passages and the population doubling time. At passage 2 300.000 keratinocytes were plated in 60 mm dishes. The day after the cells were treated with the compounds at the indicated concentration for 48 hours without changing of the media. Cells were collected by scraping in medium. Cells were centrifuged at 800 g for 5 min and RNA was extracted.
Total RNA from cells was isolated using mirVana mirRNA Isolation Kit (Ambion) by following the manufacturer's protocol for total RNA extraction. Total RNA was quantified using a NanoDrop Spectophotometer (Thermo Scientific, Delaware, USA) and RNA quality was controlled on an agarose gel. For microRNA detection, RNA was reverse transcribed using TaqMan MicroRNA Reverse Transcription kit and qRT-PCR was performed with TaqMan universal master mix (Applied Biosystem) and specific primers for miR-130a, -138, -181a and -191. U18 was used as an internal control (Applied Biosystem). The expression of each gene and miR was defined from the threshold cycle (Ct), and relative expression levels were calculated by using the 2-ΔΔCt method after normalization with reference to the expression of the housekeeping gene U18.
The following compounds were tested according to the process of the invention, and the following results were obtained: […]
(In general: Quantitative PCR measures a nucleic acid by following its amplification.)

Series [2] deals with Mir 181a. The series is described as follows: Screening of active compounds: miR-181a expression by real time PCR in keratinocytes. The series is classed as cell-based, human. The conditions noted are these: 48 hours. The procedure: as §1, with “extracted. Total RNA from cells was isolated using […] Isolation Kit (Ambion) by following the manufacturer's protocol for total RNA extraction. Total RNA was quantified using a NanoDrop Spectophotometer (Thermo Scientific, Delaware, USA) and RNA quality was controlled on an agarose gel. […] The expression of each gene and miR was defined from the threshold cycle (Ct), and relative expression levels were calculated by using the 2-ΔΔCt method after normalization with reference to the expression of the housekeeping gene U18. […]” for “extracted.”

In series [3] the test system is Mir 191. Description: Screening of active compounds: miR-191 expression by real time PCR in keratinocytes. The series is classed as cell-based, human. The conditions noted are these: 48 hours, compound at 6. 10-5%. The protocol:
as §1
Total RNA from cells was isolated using mirVana mirRNA Isolation Kit (Ambion) by following the manufacturer's protocol for total RNA extraction. Total RNA was quantified using a NanoDrop Spectophotometer (Thermo Scientific, Delaware, USA) and RNA quality was controlled on an agarose gel. […] The expression of each gene and miR was defined from the threshold cycle (Ct), and relative expression levels were calculated by using the 2-ΔΔCt method after normalization with reference to the expression of the housekeeping gene U18. […]

Series [4] concerns Sirt-1 3′UTR wt. The series is described as follows: Luciferase reporter assay, Sirt-1 3′UTR wt, HEK 293E cells. The series is classed as cell-based, human. The following applies: Sirt-1 3′UTR wt reporter, 12 pmol pre-miR, 24 hours after transfection. The procedure: Human Sirt-1 3′UTR was amplified by PCR from the first nucleotide after stop codon to the last nucleotide before polyadenylation signal from human genomic DNA using the following primers:
The 1940 bp fragment (i.e. pSirT1 3′UTR wt), after SpeI restriction, was ligated to a compatible XbaI linearized pGL3 Control vector (Promega, Madison, Wis., USA).
(§2) 2×10^5 HEK 293E cells were seeded in 12 well dishes 24 hours before transfection. Cells were transfected using Lipofectamine 2000 (Invitrogen) with 100 ng of pGL3 vectors (i.e. with Sirt-1 3′UTR wt or Sirt-1 3′UTR miR-138 del), 12 pmol of pre-miR-138 or pre-miR scramble sequence (Ambion), and 10 ng of Renilla luciferase pRL-CMV vector. Luciferase activities of cellular extracts were measured 24 hours after transfection, by using a Dual Luciferase Reporter Assay System (Promega); light emission was measured over 10 seconds using an OPTOCOMP I luminometer. Efficiency of transfection was normalised using Renilla luciferase activity.
2×10^5 HEK 293E cells were seeded in 12 well dishes 24 hours before transfection. […] Luciferase activities of cellular extracts were measured 24 hours after transfection, by using a Dual Luciferase Reporter Assay System (Promega); light emission was measured over 10 seconds using an OPTOCOMP I luminometer. […]
On the technique in general: A reporter such as luciferase makes a cellular process visible.

Series [5] deals with Sirt-1 3′UTR miR-181a del. Description: Luciferase reporter assay, Sirt-1 3′UTR miR-181a del, HEK 293E cells. The following applies: Sit 3′UTR miR-181a del reporter, 24 hours after transfection. The series is classed as cell-based, human. The procedure:
On the other hand, from this wild type sequence, the miR-181a predicted target site (7 bp, UGAAUGU) was deleted by PCR using the following overlapping primers:
Therefore, the SirT1 3′UTR miR-181a del is obtained.
as §2, with “miR-181a” for “miR-138”, “pre-miR-181a” for “pre-miR-138”

Series [6] has as its system SirT1 protein. Description: Western blot of SirT1 in transfected human keratinocytes. The following applies: versus scrambled sequence (Ctrl). The series is classed as cell-based. The procedure: Human primary keratinocytes were cultured in EpiLife medium with HKGS growth supplements (Cascade) and treated with CaCl2 1.2 mM in order to induce the differentiation process. Differentiated cells were harvested after 7 days of treatment for microRNA levels analysis. Human primary keratinocytes were transfected with human pre-miR-138, anti-miR-138 and Cy3-labeled negative control (Ambion, Texas, USA) using the SiPORT neoFX transfection agent (Ambion) according to manufacturer protocols. 16 hrs after transfection, the medium was removed and replaced with fresh medium.
(§3) Total cell extracts were resolved on a SDS polyacrylamide gel, blotted on a Hybond P PVDF membrane (G&E Healthcare, UK). Membranes were blocked with PBST 5% non fat dry milk, incubated with primary antibodies for 2 h at room temperature, washed and hybridized for 1 h at room temperature using the appropriate horseradish peroxidase-conjugated secondary antibody (rabbit and mouse, BioRad, Hercules, Calif., USA). Detection was performed with the ECL chemiluminescence kit (Perkin Elmer, Waltham, Mass., USA).
anti-Sirt-1 (Abcam, Cambridge, United Kingdom; 1/500 dilution), anti-β actin (Sigma, St Louis, Minn., USA; 1/5000 dilution), were used.
The human primary keratinocytes described in Example 1 are used in this example. […]

In series [7] the test system is proliferating keratinocytes. The series is described as follows: Proliferation by BrdU incorporation (Click-iT EdU flow cytometry) after miR over-expression. The series is classed as cell-based. The conditions noted are these: over-expression in proliferating human primary keratinocytes. The procedure: (§4) The human primary keratinocytes described in Example 1 are used in this example. Human primary keratinocytes were cultured in EpiLife medium with HKGS growth supplements (Cascade). […] 16 hrs after transfection, the medium was removed and replaced with fresh medium.
Methods used to evaluate cell proliferation are generally based on incorporation of bromodeoxyuridine (BrdU) during DNA synthesis. The Click-iT™ EdU flow cytometry assay kit is a novel alternative to BrdU assay (Molecular Probes, Eugene, Oreg., USA). […] Briefly, cells were incubated with EdU for 4 hrs. After incubation, samples were fixed, permeabilized and stained according to the manufacturer's protocol. Cell cycle was analysed using a FACSCalibur flow cytometer (BD Biosciences, San Jose, Calif., USA). Fifteen thousand events were evaluated using the Cell Quest (BD) and Modfit LT (Verity Software; BD) programs.
A general note: Incorporation of labelled thymidine or its analogues reports DNA synthesis.

Series [8] deals with proliferating keratinocytes. The series is described as follows: Senescence-associated β-galactosidase staining after miR over-expression. The series is classed as cell-based. The following applies: over-expression in proliferating human primary keratinocytes. The protocol:
as §4
Cells were plated in 6-well culture plates, washed with PBS, and fixed with 2% formaldehyde/0.2% glutaraldehyde in PBS for 5 minutes. After another washing step with PBS, cells were incubated with β-galactosidase staining solution (150 mmol/L NaCl, 2 mmol/L MgCl2, 5 mmol/L potassium ferricyanide, 5 mmol/L potassium ferrocyanide, 40 mmol/L citric acid, 12 mmol/L sodium phosphate, pH 6.0, containing 1 mg/mL 5-bromo-4-chloro-3-indolyl-β-Dgalactoside [X-gal]) for 24 hours at 37° C. The reaction was stopped by replacing the staining solution with 70% glycerol.

Series [9] relates to CDK6 3′UTR wt. Description: Luciferase reporter assay, CDK6 3′UTR wt, HEK 293E cells. The series is classed as cell-based. The following applies: CDK6 3′UTR wt reporter, 24 hours after transfection. The protocol: 2×10^5 HEK 293E cells were seeded in 12 well dishes 24 hours before transfection. Cells were transfected using Lipofectamine 2000 (Invitrogen) with 100 ng of pGL3 vectors 12 pmol of pre-miR-191 or pre-miR scramble sequence (Ambion), and 10 ng of Renilla luciferase pRL-CMV vector. Luciferase activities of cellular extracts were measured 24 hours after transfection, by using a Dual Luciferase Reporter Assay System (Promega); light emission was measured over 10 seconds using an OPTOCOMP I luminometer. Efficiency of transfection was normalised using Renilla luciferase activity.

Series [10] has as its system CDK6 protein. The series is described as follows: Western blot of CDK6 in transfected human keratinocytes. The series is classed as cell-based. The following applies: versus scrambled sequence (Ctrl). The procedure:
The human primary keratinocytes described in Example 1 are used in this example. Human primary keratinocytes were cultured in EpiLife medium with HKGS growth supplements (Cascade) and treated with CaCl2 1.2 mM in order to induce the differentiation process. Differentiated cells were harvested after 7 days of treatment for microRNA levels analysis. Human primary keratinocytes were transfected with human pre-miR-191, anti-miR-191 and Cy3-labeled negative control (Ambion, Texas, USA) using the SiPORT neoFX transfection agent (Ambion) according to manufacturer protocols. 16 hrs after transfection, the medium was removed and replaced with fresh medium.
as §3
Polyclonal anti-CDK-6 (Santa Cruz, sc-177, dilution 1:2000), anti-β actin (Sigma, St Louis, Minn., USA; 1/5000 dilution), were used.

For the molecule `CCCCC[C@H](O)CC(=O)CCc1ccc(O)c(OC)c1` [Gingerol 6], in [1] (compound at 6. 10-5%), the “inhibition of Mir 130a expression” value is on record as >20 (37%). Further, in series [2] (compound at 6. 10-5%), the “inhibition of Mir 181a expression” value is on record as >20 (29%). In addition, the “inhibition of Mir 191 expression” value in series [3] is reported as >20 (24%).

As for `Oc1ccc(C=Cc2cc(O)cc(O)c2)cc1` [Resveratrol], the “inhibition of Mir 130a expression” value in series [1] (compound at 4. 10-4%) was >20 (25%). In addition, in series [2] (compound at 4. 10-4%), the “inhibition of Mir 181a expression” value was >20 (21%).

As to `COC(=O)C1Cc2cc(OC(C)=O)c(OC(C)=O)cc2N1C(C)=O` (centres unmarked) [Tryacetyl-leukodopachrome methyl ester], the “inhibition of Mir 130a expression” value in series [1] (compound at 10-3%) is on record as 20 (10-3%).

As to “pre-miR-181a: human pre-miR-181a (Ambion) transfected to over-express miR-181a (SEQ ID No. 3) [reference compound]”, the luciferase activity in series [4] amounted to 0.648±0.1 fold over control; in [5] it was 0.93±0.09 fold over control. The “SirT1 protein level (Western blot)” value in series [6] is reported as “markedly diminished”. For the same molecule, the “proliferation as evaluated by BrdU incorporation” value in series [7] (listed as miR181a) was “significantly diminished”; in [7] (listed as miR-181a) it was “strong effect on inhibition of proliferation”. Also, the “senescence as evaluated by SA-β-galactosidase staining” value in [8] (listed as miR-181a) was “sufficient per se to induce senescence; also recorded: significantly increase”.

B1: pre-miR-191: human pre-miR-191 (Ambion) transfected to over-express miR-191 (SEQ ID No. 4) (nucleic acid)
chain: CGGCUGGACAGCGGGCAACGGAAUCCCAAAAGCAGCUGUUGUCUCCAGAGCAUUCCAGCUGCGCUUGGAUUUCGUCCCCUGCUCUCCUGCCU
modifications: precursor form, further chemistry not given here
In series [9], B1 showed a luciferase activity of 0.78±0.1 fold over control. Further, the “CDK6 protein level (Western blot)” value in series [10] is on record as “markedly diminished”. For the same molecule, the “proliferation as evaluated by BrdU incorporation” value in series [7] (listed as miR191) is given as “significantly diminished”; in series [7] (listed as miR-191), “strong effect on inhibition of proliferation”. For the same molecule, the “senescence as evaluated by SA-β-galactosidase staining” value in [8] (listed as miR-191) was “significantly increase; also recorded: sufficient per se to induce senescence”.
